Measurements reported in patent US8178506B2, “Oligomeric compounds and compositions for use in modulation of small non-coding RNAs” (Regulus Therapeutics Inc., priority 2003, dated 2012).
In the oligonucleotide strings, read from the 5' end, every base follows the letter of its sugar. An asterisk marks phosphorothioate; unmarked linkages are phosphodiester. Other units and linkages are bracketed, terminal groups are in braces. A string of capitals states the bases alone. e = 2'-O-(2-methoxyethyl) (MOE); [5mC] = 5-methylcytosine; d = 2'-deoxy (DNA)

Key:
Assay type in all cases: cell-based, human
[1] = test system: PEPCK-c; experiment: PEPCK-c mRNA expression in HepG2 cells; conditions: for PEPCKc mRNA expression: Experiment 2, insulin treated: HepG2 cells transfected with oligomeric compound, 1 nM insulin for four hours, UTC + 1 nM insulin = 100; for reduction of PEPCK-c mRNA expression: HepG2, 1 nM insulin; for reduction of PEPCK-c mRNA expression / decrease in PEPCK-c mRNA: 100 nM; for decrease in PEPCK-c mRNA: HepG2, basal (no insulin)
Procedure: (§1) Approximately 28 hours after transfection, the cells are subjected to serum starvation for a period of 12 to 16 hours, using serum-free growth medium. Following serum starvation, cells are treated with 1 nM insulin (insulin-treated) or are left untreated (basal conditions) for approximately four hours. At the same time, untreated control cells in both plates are treated with 100 nM insulin to determine the maximal insulin response. Following insulin treatment (forty-eight hours after transfection), total RNA is harvested from all samples, and the amount of total RNA from each sample is determined using a Ribogreen assay (Invitrogen Corporation, Carlsbad, Calif.). Real-time PCR is performed on the total RNA samples using primer/probe sets for three insulin responsive genes: insulin-like growth factor binding protein-1 (IGFBP-1), cytosolic PEPCK (PEPCK-C), and follistatin. Gene expression levels obtained by real-time PCR are normalized for total RNA content in the samples.
(§2) Oligomeric compounds of the present invention were tested for their effects on insulin signaling in HepG2 cells. HepG2 cells were plated at 7500 cells/well in collagen coated 96-well plates. The following day, cells were transfected with oligomeric compounds targeting miRNAs using 100 nM oligomeric compound in LIPOFECTIN™ (Invitrogen Corporation, Carlsbad, Calif.) in two 96-well plates. The oligomeric compounds were tested in triplicate on each 96-well plate, except for positive and negative controls, which were measured up to six times per plate. At the end of transfection, the transfection medium was replaced by regular growth medium. Twenty-eight hours post-transfection, the cells were subjected to overnight (sixteen to eighteen hours) serum starvation using serum free growth medium. Forty-four hours post-transfection, the cells in the transfected wells were treated with either no insulin (“basal” Experiment 1, for identification of insulin-mimetic compounds) or with 1 nM insulin (“insulin treated” Experiment 2, for identification of insulin sensitizers) for four hours. At the same time, in both plates, cells in some of the un-transfected control wells are treated with 100 nM insulin to determine maximal insulin response. At the end of the insulin or no-insulin treatment (forty-eight hours post-transfection), total RNA is isolated from both the basal and insulin treated (1 nM) 96-well plates, and the amount of total RNA from each sample is determined using a Ribogreen assay (Molecular Probes, Eugene, Oreg.). Real-time PCR is performed on all the total RNA samples using primer/probe sets for three insulin responsive genes: PEPCK-c, IGFBP-1 and follistatin. Expression levels for each gene are normalized to total RNA, and values+standard deviation are expressed relative to the transfectant only untreated control (UTC) and negative control compounds.
(§3) Protocols for treatment of HepG2 cells and transfection of oligomeric compounds are as described in Example 18. Also as described in Example 18, forty-four hours post-transfection, the cells in the transfected wells were treated with either no insulin (“basal” Experiment 3 (below), for identification of insulin-mimetic compounds) or with 1 nM insulin (“insulin treated” Experiment 4 (below), for identification of insulin sensitizers) for four hours. At the same time, in both plates, cells in some of the un-transfected control wells are treated with 100 nM insulin to determine maximal insulin response. At the end of the insulin or no-insulin treatment (forty-eight hours post-transfection), total RNA is isolated from both the basal and insulin treated (1 nM) 96-well plates, and the amount of total RNA from each sample is determined using a Ribogreen assay (Molecular Probes, Eugene, Oreg.).

[2] = test system: IGFBP-1; experiment: IGFBP-1 mRNA expression in HepG2 cells; conditions: for IGFBP1 mRNA expression: Experiment 2, insulin treated: HepG2 cells transfected with oligomeric compound, 1 nM insulin for four hours, UTC + 1 nM insulin = 100
Procedure: as §1, §2, §3

[3] = test system: follistatin; experiment: Follistatin mRNA expression in HepG2 cells; conditions: for Follistatin mRNA expression: Experiment 2, insulin treated: HepG2 cells transfected with oligomeric compound, 1 nM insulin for four hours, UTC + 1 nM insulin = 100
Procedure: as §1, §2, §3

[4] = test system: adipocytes; experiment: Triglyceride accumulation assay in adipocytes; conditions: differentiating adipocytes transfected with oligomeric compound; Table 75
[5] = test system: aP2; experiment: aP2 mRNA expression in adipocytes (real-time PCR); conditions: differentiating adipocytes transfected with oligomeric compound; Table 75
[6] = test system: HSL; experiment: HSL mRNA expression in adipocytes (real-time PCR); conditions: differentiating adipocytes transfected with oligomeric compound; Table 75
[7] = test system: Glut4; experiment: Glut4 mRNA expression in adipocytes (real-time PCR); conditions: differentiating adipocytes transfected with oligomeric compound; Table 75
[8] = test system: PPARγ; experiment: PPARγ mRNA expression in adipocytes (real-time PCR); conditions: differentiating adipocytes transfected with oligomeric compound; Table 75
[9] = Experiment 3, basal (no insulin), HepG2 cells, 48 hours post-transfection
[10] = Experiment 4, insulin-sensitization: HepG2 cells treated with 1 nM insulin for four hours, 48 h post-transfection, mRNA by real-time PCR
[11] = HepG2 cells, Experiment 1, basal (no insulin), four hours, UTC = 100

328769 (antisense eA*eG*eG*e[5mC]*eT*dG*dG*dA*d[5mC]*dA*dG*d[5mC]*dA*d[5mC]*dA*e[5mC]*eA*eA*e[5mC]*e[5mC]) [compound 328769]
PEPCKc mRNA expression [1]: 100 | IGFBP1 mRNA expression [2]: 110 | Follistatin mRNA expression [3]: 84

328702 (eT*eG*eA*e[5mC]*e[5mC]*dA*d[5mC]*dA*dA*dA*dA*dT*dT*d[5mC]*d[5mC]*eT*eT*eA*e[5mC]*eA; antisense) [compound 328702]
PEPCKc mRNA expression [1]: 96 | IGFBP1 mRNA expression [2]: 83 | Follistatin mRNA expression [3]: 88

341813 (antisense AGACACGTGCACTGTAGA; all 2'-MOE, all phosphorothioate, methylation of C not given here) [compound 341813]
PEPCK-c (% UTC) [1, 9]: 121 % UTC | PEPCK-c (% UTC) [1, 10]: 88 % UTC | IGFBP-1 (% UTC) [2, 9]: 137 % UTC | IGFBP-1 (% UTC) [2, 10]: 117 % UTC | Follistatin (% UTC) [3, 9]: 100 % UTC | Follistatin (% UTC) [3, 10]: 102 % UTC

341802 (antisense AGCUGCUUUUGGGAUUCCGUUG; all 2'-MOE, all phosphorothioate, methylation of C and T or U not given here) [compound 341802]
TG (triglyceride accumulation) [4]: 155 percentage of untreated control (UTC) | aP2 mRNA [5]: 98 percentage of untreated control (UTC) | HSL mRNA [6]: 121 percentage of untreated control (UTC) | GLUT4 mRNA [7]: 85 percentage of untreated control (UTC) | PPAR gamma mRNA [8]: 127 percentage of untreated control (UTC) | PEPCKc mRNA [1, 11]: 98 | IGFBP1 mRNA [2, 11]: 186 | Follistatin mRNA [3, 11]: 136

AGAAGGTGGGGAGCAGCGTCA (anti-miR; chemistry not fully specified) [ISIS 328115, uniform 2′-MOE PS; targets hypothetical miRNA-142]
reduction of PEPCK-c mRNA expression [1]: 41%

328761 (antisense eG*e[5mC]*eA*eG*eG*d[5mC]*dT*dA*dA*dA*dA*dG*dA*dA*dA*eT*eA*eA*eG*e[5mC]) [compound 328761]
PEPCKc mRNA expression [1]: 64 | PEPCK-c (% UTC) [1, 9]: 48 % UTC | PEPCK-c (% UTC) [1, 10]: 55 % UTC | IGFBP1 mRNA expression [2]: 193 | IGFBP-1 (% UTC) [2, 9]: 118 % UTC | IGFBP-1 (% UTC) [2, 10]: 93 % UTC | Follistatin mRNA expression [3]: 53 | Follistatin (% UTC) [3, 9]: 91 % UTC | Follistatin (% UTC) [3, 10]: 98 % UTC

ISIS 341804: SEQ ID NO: 761, targeting mir-94/mir-106b (antisense ATCTGCACTGTCAGCACTTT; all 2'-MOE, all phosphorothioate, methylation of C not given here)
decrease in PEPCK-c mRNA [1]: 56%

328343 (eT*e[5mC]*eG*eA*eT*dT*dT*dA*dG*dT*dT*dA*dT*d[5mC]*dT*eA*eA*eA*eA*eA) [compound 328343]
PEPCKc mRNA expression [1]: 69 | IGFBP1 mRNA expression [2]: 135 | Follistatin mRNA expression [3]: 139

328776 (antisense eT*e[5mC]*e[5mC]*eT*eG*dT*dA*dA*dT*dT*dA*dT*dA*dG*dG*e[5mC]*eT*eA*eG*e[5mC]) [compound 328776]
PEPCKc mRNA expression [1]: 125 | IGFBP1 mRNA expression [2]: 86 | Follistatin mRNA expression [3]: 114

TCAGTTTTGCATGGATTTGCACA (anti-miR; chemistry not fully specified) [ISIS 327922, uniform 2′-MOE PS; targets mir-19b-2]
reduction of PEPCK-c mRNA expression [1]: 24% | decrease in PEPCK-c mRNA [1]: 23%
